The half-life is how long it takes for the measured level to halve. The low end stands for rapid decline, the high end for slow decline.

VR1, sequence (Q8NER1 whole entry): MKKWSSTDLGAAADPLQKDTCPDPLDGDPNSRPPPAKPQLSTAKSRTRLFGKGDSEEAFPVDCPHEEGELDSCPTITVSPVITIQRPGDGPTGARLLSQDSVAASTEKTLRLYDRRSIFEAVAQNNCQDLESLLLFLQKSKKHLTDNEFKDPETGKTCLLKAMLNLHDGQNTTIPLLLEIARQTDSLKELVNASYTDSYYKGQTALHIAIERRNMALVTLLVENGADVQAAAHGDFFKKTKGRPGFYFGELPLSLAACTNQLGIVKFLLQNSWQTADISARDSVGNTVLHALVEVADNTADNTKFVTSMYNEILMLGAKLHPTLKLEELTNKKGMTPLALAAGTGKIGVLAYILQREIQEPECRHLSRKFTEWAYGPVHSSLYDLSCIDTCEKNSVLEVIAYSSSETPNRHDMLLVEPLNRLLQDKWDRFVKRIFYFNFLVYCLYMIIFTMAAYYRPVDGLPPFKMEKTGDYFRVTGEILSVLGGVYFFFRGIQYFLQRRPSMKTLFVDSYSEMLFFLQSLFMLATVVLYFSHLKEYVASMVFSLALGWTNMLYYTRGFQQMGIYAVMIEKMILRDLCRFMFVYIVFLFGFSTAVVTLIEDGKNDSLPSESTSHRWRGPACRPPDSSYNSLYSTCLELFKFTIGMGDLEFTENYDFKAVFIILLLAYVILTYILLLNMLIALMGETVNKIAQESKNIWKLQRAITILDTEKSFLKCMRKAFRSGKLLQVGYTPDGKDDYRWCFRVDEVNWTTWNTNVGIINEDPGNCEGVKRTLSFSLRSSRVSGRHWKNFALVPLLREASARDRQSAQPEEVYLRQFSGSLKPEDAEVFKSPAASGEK

Test system in one data set: not listed separately
Description: Half-life in human liver microsomes (HLM). The settings on record: 1 μM compound, 0.78 mg/mL HLM, 37° C., NADPH. It is filed as in vitro ADME. The procedure: Test compounds (1 μM) were incubated with 3.3 mM MgCl2 and 0.78 mg/mL HLM (HL101) in 100 mM potassium phosphate buffer (pH 7.4) at 37° C. on the 96-deep well plate. The reaction mixture was split into two groups, a non-P450 and a P450 group. NADPH was only added to the reaction mixture of the P450 group. An aliquot of samples of P450 group was collected at 0, 10, 30, and 60 min time point, where 0 min time point indicated the time when NADPH was added into the reaction mixture of P450 group. An aliquot of samples of non-P450 group was collected at −10 and 65 min time point. Collected aliquots were extracted with acetonitrile solution containing an internal standard. The precipitated protein was spun down in centrifuge (2000 rpm, 15 min). The compound concentration in supernatant was measured by LC/MS/MS system.
The half-life value was obtained by plotting the natural logarithm of the peak area ratio of compounds/internal standard versus time. The slope of the line of best fit through the points yields the rate of metabolism (k). This was converted to a half-life value using following equations:
Exemplary compounds of the invention were tested (1 μM), and were incubated with 3.3 mM MgCl2 and 0.78 mg/mL HLM (HL101) in 100 mM potassium phosphate buffer (pH 7.4) at 37° C. on the 96-deep well plate. The reaction mixture was split into two groups, a non-P450 and a P450 group. NADPH was only added to the reaction mixture of the P450 group. An aliquot of samples of the P450 group was collected at 0, 10, 30, and 60 minute time points, where the 0 minute time point indicated the time when NADPH was added into the reaction mixture of the P450 group. An aliquot of samples of the non-P450 group was collected at −10 and 65 minute time points. Collected aliquots were extracted with an acetonitrile solution containing an internal standard. The precipitated protein was spun down in a centrifuge (2000 rpm, 15 rain). The compound concentration in supernatant was measured by LC/MS/MS system. The half-life value (T1/2) was obtained by plotting the natural logarithm of the peak area ratio of compounds/internal standard versus time. The slope of the line of best fit through the points yields the rate of metabolism (k). This was converted to a half-life value using following equations: Half-life=ln 2/k.
(Microsomes from liver hold many membrane-bound enzymes, among them those of drug oxidation.)
As to `CC(C)(C)C#Cc1ccc(C(=O)Nc2cccc3cnccc23)cc1OCCN1CCOCC1` [Compound 60], the “Half Life” value is 21 min.

`O=C(Nc1ccc2c(c1)OCCN2)c1ccc(/C=C/C(F)(F)F)cc1` [Compound 63]: the “Half Life” value is 24 min.

The same data set, now with this note: human, human liver microsomes (HLM, HL101), pH 7.4; 1 μM compound, 0.78 mg/mL HLM, 37° C., NADPH.
As for `CC(C)(C)C#Cc1ccc(C(=O)Nc2ccc3c(c2)OCCO3)cn1` [Compound 22], the half-life at 1 μM is 70.8 min.

On to `CC(C)(C)C#Cc1ccc(C(=O)Nc2cccc3cnccc23)cc1` [Compound 31], for which the half-life at 1 μM is 24 min.

`O=C(Nc1ccc2c(c1)OCCO2)c1ccc(/C=C/C(F)(F)F)cc1` [Compound 34]: the half-life at 1 μM is 69 min.

With `O=C(Nc1cnc2ccccc2c1)c1ccc(/C=C/C(F)(F)F)cc1` [Compound 36], the half-life at 1 μM is 103 min. This half-life at 1 μM and that of the compound before are within 1.5-fold of each other.

Compound `O=C(Nc1cnc2ccccc2c1)c1ccc(C#CC(F)(F)F)cc1` [Compound 46] showed a half-life at 1 μM of 1.2 min.

As for `O=C(Nc1cccc2cnccc12)c1ccc(C#CC2CC2)cc1` [Compound 48], the half-life at 1 μM is 19.8 min.

On to `Cc1nc2cc(NC(=O)c3ccc(C#CC(F)(F)F)cc3)ccc2s1` [Compound 52], for which the half-life at 1 μM is 1.8 min. This half-life at 1 μM lies about 11-fold lower than the previous one.

Compound `CCOc1cc(C(=O)Nc2cccc3cnccc23)ccc1C#CC(C)(C)C` [Compound 65] showed a half-life at 1 μM of 25.2 min.

A further data set addresses VR1 (Homo sapiens, UniProt Q8NER1). Description: Calcium uptake assay, low pH (proton) stimulus. The data set is classed as cell-based. Also on record: expressed in transfected cells; host or cells: T-REx HEK 293 (Invitrogen), pcDNA5/TO vector. Conditions: HEK293; 0.3 μM compound; low pH agonist; HEK 293 cells expressing hVR1; read-out: Low pH % Inhib. @ 0.3 μM.
On to `CC(C)(C)C#Cc1ccc(C(=O)Nc2ccc3c(c2)OCCO3)cn1` [Compound 22], for which the inhibition at 0.3 µM turned out to be 106%.

As to `CC(C)(C)C#Cc1ccc(C(=O)Nc2cccc3cnccc23)cc1` [Compound 31], the inhibition at 0.3 µM amounted to 108%.

For `O=C(Nc1ccc2c(c1)OCCO2)c1ccc(/C=C/C(F)(F)F)cc1` [Compound 34], the inhibition at 0.3 µM was found to be 97%.

`O=C(Nc1cnc2ccccc2c1)c1ccc(/C=C/C(F)(F)F)cc1` [Compound 36]: the inhibition at 0.3 µM was determined as 54%.

In the case of `O=C(Nc1cccc2cnccc12)c1ccc(C#CC2CC2)cc1` [Compound 48], the inhibition at 0.3 µM was found to be 99%.

With `Cc1nc2cc(NC(=O)c3ccc(C#CC(F)(F)F)cc3)ccc2s1` [Compound 52], the inhibition at 0.3 µM was 101%.

With `CCOc1cc(C(=O)Nc2cccc3cnccc23)ccc1C#CC(C)(C)C` [Compound 65], the inhibition at 0.3 µM worked out at 109%.

For `Cc1cc(C#CC2CCCC2)ccc1C(=O)Nc1ccc2c(c1)OCC(CO)O2` (centres unmarked) [Compound 141], the inhibition at 0.3 µM is 87%.

`O=C(Nc1ccc2c(c1)OCCO2)c1ccc(/C=C/C(F)(F)F)cc1F` [Compound 142]: the inhibition at 0.3 µM was 70%.

Regarding `O=C(Nc1ccc2c(c1)OCCN2)c1ccc(C#CC2CC2)cc1F` [Compound 143], the inhibition at 0.3 µM stood at 100%.

Regarding `O=C(Nc1ccc2c(c1)OCCO2)c1ccc(C#CC2CC2)cc1F` [Compound 145], the inhibition at 0.3 µM was 41%.

In the case of `CC(C)(C)C#Cc1ccc(C(=O)Nc2ccc3c(c2)OCCN3)c(Cl)c1` [Compound 146], the inhibition at 0.3 µM came out at 93%.

As to `O=C(Nc1ccc2c(c1)OCCN2)c1ccc(C#CC2CC2)cc1Cl` [Compound 147], the inhibition at 0.3 µM stood at 88%.

On to `O=C(Nc1ccc2c(c1)OCCN2)c1ccc(/C=C/C(F)(F)F)cc1Cl` [Compound 148], for which the inhibition at 0.3 µM was 104%.

`O=C(Nc1ccc2c(c1)OCC(CO)O2)c1ccc(/C=C/C(F)(F)F)cc1F` (centres unmarked) [Compound 149]: the inhibition at 0.3 µM came to 71%.

As for `O=C(Nc1ccc2c(c1)OCC(CO)O2)c1ccc(C#CC2CC2)cc1F` (centres unmarked) [Compound 150], the inhibition at 0.3 µM came out at 75%.

As to `Cc1cc(C#CC2CC2)ccc1C(=O)Nc1ccc2c(c1)OCC(CO)O2` (centres unmarked) [Compound 151], the inhibition at 0.3 µM came to 108%.

For `Cc1cc(C#CC2CC2)ccc1C(=O)Nc1ccc2c(c1)OCCO2` [Compound 152], the inhibition at 0.3 µM is 73%.

In the case of `Cc1cc(C#CC2CC2)ccc1C(=O)Nc1ccc2c(c1)OCCN2` [Compound 153], the inhibition at 0.3 µM came to 104%.

With `CC(C)(C)C#Cc1ccc(C(=O)Nc2ccc3c(c2)OCC(CO)O3)c(F)c1` (centres unmarked) [Compound 154], the inhibition at 0.3 µM was 95%.

As for `CC(C)(C)C#Cc1ccc(C(=O)Nc2ccc3c(c2)OCCO3)c(F)c1` [Compound 155], the inhibition at 0.3 µM is 95%.

On to `O=C(Nc1ccc2c(c1)OCC(CO)O2)c1ccc(C#CC2CC2)cc1Cl` (centres unmarked) [Compound 156], for which the inhibition at 0.3 µM came to 102%.

Consider `CC(C)(C)C#Cc1ccc(C(=O)Nc2cccc3cnccc23)c(Cl)c1` [Compound 161], for which the inhibition at 0.3 µM turned out to be 95%.

Turning to `Cc1nc2cc(NC(=O)c3ccc(C#CC(C)(C)C)cc3Cl)ccc2s1` [Compound 165], the inhibition at 0.3 µM amounted to 107%.

Turning to `CC(C)(C)C#Cc1cc(F)c(C(=O)Nc2ccc3c(c2)OCC(CO)N3)c(F)c1` (centres unmarked) [Compound 168], the inhibition at 0.3 µM is 104%.

With `O=C(Nc1ccc2c(c1)OC[C@@H](CO)N2)c1ccc(C#CC2CC2)cc1F` [Compound 169], the inhibition at 0.3 µM amounted to 112%.

Take `O=C(Nc1ccc2c(c1)OC[C@H](CO)N2)c1ccc(C#CC2CC2)cc1F` [Compound 171]: the inhibition at 0.3 µM was 112%.

As to `Cc1nc2cc(NC(=O)c3ccc(C#CC(C)(C)C)cc3F)ccc2s1` [Compound 173], the inhibition at 0.3 µM worked out at 109%.

Turning to `CC(C)(C)C#Cc1ccc(C(=O)Nc2cnc3ccccc3c2)c(F)c1` [Compound 174], the inhibition at 0.3 µM came out at 97%.

Take `CC(C)(C)C#Cc1ccc(C(=O)Nc2cccc3cnccc23)c(F)c1` [Compound 175]: the inhibition at 0.3 µM worked out at 95%.

Regarding `Cc1nc2cc(NC(=O)c3ccc(/C=C/C(F)(F)F)cc3F)ccc2s1` [Compound 177], the inhibition at 0.3 µM is 85%.

Consider `O=C(Nc1cnc2ccccc2c1)c1ccc(/C=C/C(F)(F)F)cc1F` [Compound 178], for which the inhibition at 0.3 µM worked out at 9%.

As for `CC(C)(C)C#Cc1cc(F)c(C(=O)Nc2cnc3ccccc3c2)c(F)c1` [Compound 179], the inhibition at 0.3 µM came out at 100%.

On to `Cc1nc2cc(NC(=O)c3c(F)cc(C#CC(C)(C)C)cc3F)ccc2s1` [Compound 180], for which the inhibition at 0.3 µM came to 99%.

On to `CC(C)(C)C#Cc1ccc(C(=O)Nc2ccc3c(c2)OC[C@H](CO)N3)c(Cl)c1` [Compound 182], for which the inhibition at 0.3 µM is 103%.

In the case of `CC(C)(C)C#Cc1ccc(C(=O)Nc2ccc3c(c2)OC[C@@H](CO)N3)c(Cl)c1` [Compound 183], the inhibition at 0.3 µM was determined as 98%.

Regarding `Cc1cc(/C=C/C(F)(F)F)ccc1C(=O)Nc1ccc2c(c1)OCC(CO)O2` (centres unmarked) [Compound 185], the inhibition at 0.3 µM was 92%.

Consider `Cc1cc(C#CC(C)(C)C)ccc1C(=O)Nc1ccc2c(c1)OCC(CO)O2` (centres unmarked) [Compound 186], for which the inhibition at 0.3 µM stood at 91%.

For the compound `Cc1cc(/C=C/C(F)(F)F)ccc1C(=O)Nc1ccc2c(c1)OCC(O)CN2` (centres unmarked) [Compound 189], the inhibition at 0.3 µM was determined as 87%.

`Cc1cc(/C=C/C(F)(F)F)ccc1C(=O)Nc1ccc2c(c1)OCCO2` [Compound 190]: the inhibition at 0.3 µM was determined as 87%.

On to `CC(C)(C)C#Cc1cc(Cl)c(C(=O)Nc2ccc3c(c2)OCC(CO)O3)cc1F` (centres unmarked) [Compound 191], for which the inhibition at 0.3 µM worked out at 83%.

On to `Cc1cc2c(NC(=O)c3ccc(/C=C/C(F)(F)F)cc3C)cccc2cn1` [Compound 196], for which the inhibition at 0.3 µM was 86%.

As for `Cc1cc(C#CC(C)(C)C)ccc1C(=O)Nc1cccc2c(Cl)cccc12` [Compound 199], the inhibition at 0.3 µM was determined as 67%.

`Cc1cc(/C=C/C(F)(F)F)ccc1C(=O)Nc1cccc2c(Cl)nccc12` [Compound 200]: the inhibition at 0.3 µM came to 55%.

Regarding `Cc1cc(C#CC(C)(C)C)ccc1C(=O)Nc1cnc2[nH]ccc2c1` [Compound 212], the inhibition at 0.3 µM was 97%.

On to `Cc1cc(C#CC(C)(C)C)ccc1C(=O)Nc1ccc2c(c1)C(=O)NC2=O` [Compound 213], for which the inhibition at 0.3 µM came to 88%.

Turning to `Cc1nc2cc(NC(=O)c3ccc(C#CC(C)(C)C)cc3C)ccc2[nH]1` [Compound 215], the inhibition at 0.3 µM is 86%.

Regarding `Cc1cc(C#CC(C)(C)C)ccc1C(=O)Nc1cnc2cc(CO)ccc2c1` [Compound 216], the inhibition at 0.3 µM is 31%.

Take `Cc1cc(C#CC(C)(C)C)ccc1C(=O)Nc1ccc2[nH]c(=O)oc2c1` [Compound 217]: the inhibition at 0.3 µM worked out at 59%.

Regarding `Cc1cc(C#CC(C)(C)C)ccc1C(=O)Nc1cnc2[nH]c(CO)nc2c1` [Compound 218], the inhibition at 0.3 µM stood at 6%.

For `Cc1cc(/C=C/C(F)(F)F)ccc1C(=O)Nc1ccc2ncccc2c1` [Compound 222], the inhibition at 0.3 µM turned out to be 82%.

Regarding `Cc1cc(/C=C/C(F)(F)F)ccc1C(=O)Nc1ccc2cccnc2c1` [Compound 224], the inhibition at 0.3 µM turned out to be 82%.

`Cc1cc(/C=C/C(F)(F)F)ccc1C(=O)Nc1cnc2c(c1)CNCC2` [Compound 229]: the inhibition at 0.3 µM came to 54%.

Regarding `Cc1cc(/C=C/C(F)(F)F)ccc1C(=O)Nc1cnc2[nH]ccc2c1` [Compound 230], the inhibition at 0.3 µM worked out at 99%.

The data set is the same for the next values; noted with them: HEK293; 1 μM compound; low pH agonist; HEK 293 cells expressing hVR1; read-out: Low pH % Inhib. (at 1 μM).
On to `COc1cc(NC(=O)c2ccc(/C=C/C(C)C)cc2)cc(C(F)(F)F)c1` [Compound 240], for which the inhibition at 1 µM worked out at 75%.

For the origin of these results see patent US20080300243A1, “Amide Derivatives as Ion-Channel Ligands and Pharmaceutical Compositions and Methods of Using the Same” (priority 2005, published 2008).
